Data reported in US20140221374A1, “RAF KINASE INHIBITORS” (Ruga Corporation, priority 2011, published 2014).

Tests used:
[1] = tested on: A375 cells (V600E activated B-RAF); test: In vitro tumor cell growth inhibition, MTT, 72 hours; type: cell-based; conditions: Homo sapiens, A-375, 72 hours incubation
Protocol: Briefly, growth inhibition of cells containing V600E activated B-RAF (A375, Colo205) versus cell lines with wild-type B-RAF (A431) were measured under anchorage-dependent conditions using MTT (3-(4,5-dimethylthiazol-2-yl)-2,5-diphenyltetrazolium bromide), following 72 hours incubation with either compound or vehicle, as previously described (Haass, N. K., et al., Clinical Cancer Res., 14: 230-239, 2008): Cell lines are obtained from the American Type Tissue Culture Collection (Maryland, USA) and cultured in media containing heat-inactivated 10% fetal bovine serum. Cell cultures were also maintained in 10 U/mL, penicillin, 100 μg/mL streptomycin and 2 mM glutamine. At least triplicate determinations for each individual test compound concentration were made and data plotted as mean±standard deviation relative to the control vehicle.

wild-type C-RAF = wild-type C-RAF (Homo sapiens, UniProt P04049); test: In vitro assay for inhibition of RAF kinases (recombinant wild-type C-RAF, MEK (K97R) substrate); type: biochemical; conditions: 10 nM recombinant wild-type C-RAF
Protocol: (§1) The ability of compounds described herein to inhibit RAF kinase activity were determined from biochemical kinase inhibition assays using recombinant RAF proteins as known in the art.
Solutions of varying concentrations of test compounds or vehicle were added to 10 nM recombinant wild-type A-RAF, wild-type B-RAF, or wild-type C-RAF proteins incubated in the presence of different concentrations of ATP and 1 μM MEK (K97R) as substrate, as previously described (Wilhelm, S. M., et al., Cancer Res., 64: 7099-7109, 2004; Mason, C S., et al., EMBO J. 18: 2137-2148, 1999; Marais, R., et al., J. Biol. Chem., 272: 4378-4383, 1997). At least triplicate determinations for each individual test compound concentration were made and data plotted as mean±standard deviation relative to the control vehicle.

V600E-mutated B-RAF = V600E-mutated B-RAF (Homo sapiens, UniProt P15056, V600E); test: In vitro assay for inhibition of mutant B-RAF kinase (recombinant V600E-mutated B-RAF, MEK (K97R) substrate); type: biochemical; conditions: 10 nM recombinant V600E-mutated B-RAF
Protocol: as §1
Solutions of varying concentrations of test compounds or vehicle were added to 10 nM recombinant V600E-mutated B-RAF proteins incubated in the presence of different concentrations of ATP and […] (K97R) as substrate, as previously described (Wilhelm, S. M., et al., Cancer Res., 64: 7099-7109, 2004; Mason, C. S., et al.; EMBO J. 18: 2137-2.148, 1999; Marais, R., et al., J. Biol. Chem., 272: 4378-4383, 1997). At least triplicate determinations for each individual test compound concentration were made and data plotted as mean±standard deviation relative to the control vehicle.

wild-type C-RAF, sequence (P04049 whole entry): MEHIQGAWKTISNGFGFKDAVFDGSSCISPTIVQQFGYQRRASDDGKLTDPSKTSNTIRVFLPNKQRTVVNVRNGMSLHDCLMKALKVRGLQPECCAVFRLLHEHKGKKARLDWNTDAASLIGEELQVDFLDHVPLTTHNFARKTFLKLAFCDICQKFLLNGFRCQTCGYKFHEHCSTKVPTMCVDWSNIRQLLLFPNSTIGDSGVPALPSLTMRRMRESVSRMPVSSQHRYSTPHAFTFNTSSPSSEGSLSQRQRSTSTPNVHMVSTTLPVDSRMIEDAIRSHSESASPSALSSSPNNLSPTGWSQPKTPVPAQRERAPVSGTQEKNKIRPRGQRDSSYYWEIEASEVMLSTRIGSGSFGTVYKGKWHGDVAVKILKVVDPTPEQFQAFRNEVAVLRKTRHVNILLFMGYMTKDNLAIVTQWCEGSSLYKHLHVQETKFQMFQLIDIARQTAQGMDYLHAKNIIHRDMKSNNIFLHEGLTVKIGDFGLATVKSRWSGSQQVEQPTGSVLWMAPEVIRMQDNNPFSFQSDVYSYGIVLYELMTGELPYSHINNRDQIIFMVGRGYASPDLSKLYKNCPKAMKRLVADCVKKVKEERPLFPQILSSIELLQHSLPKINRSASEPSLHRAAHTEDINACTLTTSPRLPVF
V600E-mutated B-RAF, sequence (P15056 whole entry V600E): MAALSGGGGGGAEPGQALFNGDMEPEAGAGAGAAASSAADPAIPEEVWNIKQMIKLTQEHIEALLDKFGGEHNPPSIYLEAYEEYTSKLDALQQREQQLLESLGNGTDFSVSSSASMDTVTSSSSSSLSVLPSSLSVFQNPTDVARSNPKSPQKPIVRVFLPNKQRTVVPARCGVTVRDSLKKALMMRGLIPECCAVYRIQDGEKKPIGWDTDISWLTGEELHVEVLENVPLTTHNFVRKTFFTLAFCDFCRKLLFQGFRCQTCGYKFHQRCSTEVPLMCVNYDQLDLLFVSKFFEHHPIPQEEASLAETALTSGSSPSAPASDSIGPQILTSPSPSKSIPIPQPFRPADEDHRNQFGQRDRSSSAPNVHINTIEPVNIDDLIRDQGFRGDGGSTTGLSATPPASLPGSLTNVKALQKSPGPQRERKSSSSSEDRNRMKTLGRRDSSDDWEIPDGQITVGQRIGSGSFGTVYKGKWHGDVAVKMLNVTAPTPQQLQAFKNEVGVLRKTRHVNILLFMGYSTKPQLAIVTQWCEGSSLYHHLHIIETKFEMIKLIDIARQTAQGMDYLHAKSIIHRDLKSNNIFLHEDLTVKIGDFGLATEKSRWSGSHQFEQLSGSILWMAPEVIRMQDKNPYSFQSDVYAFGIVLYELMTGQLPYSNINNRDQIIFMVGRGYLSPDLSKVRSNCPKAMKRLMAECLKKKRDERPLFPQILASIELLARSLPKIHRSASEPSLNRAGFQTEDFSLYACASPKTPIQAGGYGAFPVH

Row | SMILES | IC50 [1] [µM] | IC50 (wild-type C-RAF) [µM] | IC50 (V600E-mutated B-RAF) [µM]
1 | Cc1ccc(NC(=O)Nc2cccc(-c3sc(C)nc3-c3ccnc(N)c3)c2)cc1 [Example 20, 1-(3-(4-(2-aminopyridin-4-yl)-2-methylthiazol-5-yl)phenyl)-3-p-tolylurea] | 1 to 10 |  | ≤ 0.1
2 | Cc1nc(-c2ccnc(N)c2)c(-c2ccc(F)c(NC(=O)Nc3ccc(Cl)cc3)c2)s1 [Example 22, 1-(5-(4-(2-aminopyridin-4-yl)-2-methylthiazol-5-yl)-2-fluorophenyl)-3-(4-chlorophenyl)urea] | 1 to 10 |  | ≤ 0.1
3 | Cc1nc(-c2ccnc(N)c2)c(-c2cccc(NC(=O)Nc3ccc(C(F)(F)F)cc3)c2F)s1 [Example 24, 1-(3-(4-(2-aminopyridin-4-yl)-2-methylthiazol-5-yl)-2-fluorophenyl)-3-(4-(trifluoromethyl)phenyl)urea] | 0.1 to 1 |  | 0.1 to 1
4 | Cc1nc(-c2ccnc(N)c2)c(-c2cc(NC(=O)Nc3ccc(C(F)(F)F)cc3)c(F)cc2F)s1 [Example 25, 1-(5-(4-(2-aminopyridin-4-yl)-2-methylthiazol-5-yl)-2,4-difluorophenyl)-3-(4-(trifluoromethyl)phenyl)urea] | 1 to 10 |  | ≤ 0.1
5 | Cc1nc(-c2ccnc(N)c2)c(-c2cccc(NC(=O)Nc3ccc(C(F)(F)F)cc3)c2)s1 [Example 26, 1-(3-(4-(2-aminopyridin-4-yl)-2-methylthiazol-5-yl)phenyl)-3-(4-(trifluoromethyl)phenyl)urea] | > 10 |  | ≤ 0.1
6 | Cc1nc(-c2ccncc2)c(-c2cccc(NS(=O)(=O)c3cc(F)ccc3F)c2)s1 [Example 41, 2,5-Difluoro-N-[3-(2-methyl-4-pyridin-4-yl-thiazol-5-yl)-phenyl]-benzenesulfonamide] | 1 to 10 |  | ≤ 0.1
7 | CCn1cc(-c2cccc(NC(=O)Nc3ccc(C(F)(F)F)cc3)c2F)c(-c2ccncc2)n1 [Example 50, 1-(3-(1-ethyl-3-(pyridin-4-yl)-1H-pyrazol-4-yl)-2-fluorophenyl)-3-(4-(trifluoromethyl)phenyl)urea] | 0.1 to 1 | 1 to 10 | ≤ 0.1
8 | CCn1cc(-c2cccc(NC(=O)Nc3ccc(S(C)(=O)=O)cc3)c2)c(-c2ccncc2)n1 [Example 51, 1-(3-(1-ethyl-3-(pyridin-4-yl)-1H-pyrazol-4-yl)phenyl)-3-(4-(methylsulfonyl)phenyl)urea] | 1 to 10 |  | ≤ 0.1
9 | CCn1cc(-c2cccc(N3CCN(c4ccc(C(F)(F)F)cc4)C3=O)c2)c(-c2ccncc2)n1 [Example 53, 1-(3-(1-ethyl-3-(pyridin-4-yl)-1H-pyrazol-4-yl)phenyl)-3-(4-(trifluoromethyl)phenyl)imidazolidin-2-one] | 1 to 10 |  | ≤ 0.1
10 | CCn1cc(-c2cccc(NC(=O)Nc3cccc(S(C)(=O)=O)c3)c2)c(-c2ccncc2)n1 [Example 55, 1-(3-(1-ethyl-3-(pyridin-4-yl)-1H-pyrazol-4-yl)phenyl)-3-(3-(methylsulfonyl)phenyl)urea] | > 10 |  | ≤ 0.1
11 | CCn1cc(-c2cccc(N(O)C(=O)Nc3ccc(C(F)(F)F)cc3)c2)c(-c2ccncc2)n1 [Example 63, 1-(3-(1-ethyl-3-(pyridin-4-yl)-1H-pyrazol-4-yl)phenyl)-1-hydroxy-3-(4-(trifluoromethyl)phenyl)urea] | 1 to 10 |  | ≤ 0.1

The next lines start with the values.

Row | IC50 [1] [µM] | IC50 (wild-type C-RAF) [µM] | IC50 (V600E-mutated B-RAF) [µM] | SMILES
12 | > 10 | 1 to 10 | ≤ 0.1 | Cc1ccc(NC(=O)Nc2cccc(-c3sc(C)nc3-c3ccncc3)c2)cc1 [Example 1, 1-[3-(2-Methyl-4-pyridin-4-yl-thiazol-5-yl)-phenyl]-3-p-tolyl-urea]
13 | 1 to 10 | 0.1 to 1 | ≤ 0.1 | Cc1ccc(NC(=O)Nc2cc(-c3sc(C)nc3-c3ccncc3)ccc2F)cc1 [Example 7, 1-(2-fluoro-5-(2-methyl-4-(pyridin-4-yl)thiazol-5-yl)phenyl)-3-p-tolylurea]
14 | 1 to 10 |  | ≤ 0.1 | Cc1nc(-c2ccnc(N)c2)c(-c2cccc(NC(=O)Nc3ccc(Cl)cc3)c2)s1 [Example 21, 1-(3-(4-(2-aminopyridin-4-yl)-2-methylthiazol-5-yl)phenyl)-3-(4-chlorophenyl)urea]
15 | 1 to 10 |  | ≤ 0.1 | O=C(Nc1ccc(Cl)cc1)Nc1cccc(-c2sc(N3CCOCC3)nc2-c2ccncc2)c1 [Example 33, 1-(4-chlorophenyl)-3-(3-(2-morpholino-4-(pyridin-4-yl)thiazol-5-yl)phenyl)urea]
16 | 1 to 10 |  | ≤ 0.1 | O=C(Nc1ccc(Cl)cc1)Nc1cccc(-c2sc(NCCN3CCOCC3)nc2-c2ccncc2)c1 [Example 34, 1-(4-chlorophenyl)-3-(3-(2-(2-morpholinoethylamino)-4-(pyridin-4-yl)thiazol-5-yl)phenyl)urea]
17 | 0.1 to 1 |  | ≤ 0.1 | O=C(Nc1ccc(C(F)(F)F)cc1)Nc1cc(-c2sc(NCCN3CCOCC3)nc2-c2ccncc2)ccc1F [Example 35, 1-(2-fluoro-5-(2-(2-morpholinoethylamino)-4-(pyridin-4-yl)thiazol-5-yl)phenyl)-3-(4-(trifluoromethyl)phenyl)urea]
18 | 1 to 10 |  | ≤ 0.1 | O=C(Nc1ccc(C(F)(F)F)cc1)Nc1cccc(-c2sc(NCCN3CCOCC3)nc2-c2ccncc2)c1 [Example 37, 1-(3-(2-(2-morpholinoethylamino)-4-(pyridin-4-yl)thiazol-5-yl)phenyl)-3-(4-(trifluoromethyl)phenyl)urea]
19 | > 10 |  | ≤ 0.1 | Cc1ccc(NC(=O)Cc2cccc(-c3sc(C)nc3-c3ccncc3)c2)cc1 [Example 47, 2-(3-(2-methyl-4-(pyridin-4-yl)thiazol-5-yl)phenyl)-N-p-tolylacetamide]
20 | 1 to 10 |  | ≤ 0.1 | CCn1cc(-c2ccc(F)c(NC(=O)Nc3ccc(Cl)cc3)c2)c(-c2ccncc2)n1 [Example 48, 1-(4-chlorophenyl)-3-(5-(1-ethyl-3-(pyridin-4-yl)-1H-pyrazol-4-yl)-2-fluorophenyl)urea]
21 | 0.1 to 1 |  | ≤ 0.1 | CCn1cc(-c2cccc(NC(=O)Nc3ccc(Cl)cc3)c2F)c(-c2ccncc2)n1 [Example 49, 1-(4-chlorophenyl)-3-(3-(1-ethyl-3-(pyridin-4-yl)-1H-pyrazol-4-yl)-2-fluorophenyl)urea]
22 | ≤ 0.1 | 0.1 to 1 | ≤ 0.1 | CCn1cc(-c2cccc(NC(=O)Nc3ccc(C(F)(F)F)cc3)c2)c(-c2ccncc2)n1 [Example 52, 1-(3-(1-ethyl-3-(pyridin-4-yl)-1H-pyrazol-4-yl)phenyl)-3-(4-(trifluoromethyl)phenyl)urea]
23 | 1 to 10 |  | ≤ 0.1 | CCn1cc(-c2cccc(NC(=O)Nc3ccc(S(=O)(=O)CC)cc3)c2)c(-c2ccncc2)n1 [Example 54, 1-(3-(1-ethyl-3-(pyridin-4-yl)-1H-pyrazol-4-yl)phenyl)-3-(4-(ethylsulfonyl)phenyl)urea]
24 | > 10 |  | ≤ 0.1 | CCn1cc(-c2cccc(NC(=O)Nc3ccc(S(=O)(=O)NC)cc3)c2)c(-c2ccncc2)n1 [Example 56, 4-(3-(3-(1-ethyl-3-(pyridin-4-yl)-1H-pyrazol-4-yl)phenyl)ureido)-N-methylbenzenesulfonamide]
25 | ≤ 0.1 |  | ≤ 0.1 | CCn1cc(-c2cccc(NC(=O)Nc3ccc(OC)cc3)c2)c(-c2ccncc2)n1 [Example 57, 1-(3-(1-ethyl-3-(pyridin-4-yl)-1H-pyrazol-4-yl)phenyl)-3-(4-methoxyphenyl)urea]
26 | > 10 |  | ≤ 0.1 | CCn1cc(-c2cccc(NC(=O)Nc3ccc(S(=O)(=O)N4CCOCC4)cc3)c2)c(-c2ccncc2)n1 [Example 59, 1-(3-(1-ethyl-3-(pyridin-4-yl)-1H-pyrazol-4-yl)phenyl)-3-(4-(morpholinosulfonyl)phenyl)urea]
